Data reported in ChEMBL document CHEMBL1121888, “(alpha S)-erythro-alpha-methylepinephrine: preparation and stereoselective binding to adrenergic receptors in rat forebrain” (J Med Chem, 1981).

What follows are compounds tested against T1, Adrenergic receptor alpha-1 (Rattus norvegicus, UniProt P15823+P23944+P43140) (assay: Compound was evaluated for inhibition of [3H]prazosin binding to Alpha-1 adrenergic receptor in rat forebrain homogenate.).
T1 sequence (P15823 whole entry): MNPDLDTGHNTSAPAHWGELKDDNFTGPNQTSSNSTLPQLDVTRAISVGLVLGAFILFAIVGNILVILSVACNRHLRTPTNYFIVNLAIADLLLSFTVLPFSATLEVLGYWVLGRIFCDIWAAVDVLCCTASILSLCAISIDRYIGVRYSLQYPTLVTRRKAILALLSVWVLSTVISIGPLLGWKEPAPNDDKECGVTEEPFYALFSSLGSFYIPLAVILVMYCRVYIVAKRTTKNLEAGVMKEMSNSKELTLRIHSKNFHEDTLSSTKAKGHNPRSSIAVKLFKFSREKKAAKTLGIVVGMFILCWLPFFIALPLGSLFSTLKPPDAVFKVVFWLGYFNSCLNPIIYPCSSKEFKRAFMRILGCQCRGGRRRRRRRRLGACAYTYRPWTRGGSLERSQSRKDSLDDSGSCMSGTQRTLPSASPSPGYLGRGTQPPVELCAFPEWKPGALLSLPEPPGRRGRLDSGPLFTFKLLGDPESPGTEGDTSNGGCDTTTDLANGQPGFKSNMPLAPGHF
T1 sequence (P23944 whole entry): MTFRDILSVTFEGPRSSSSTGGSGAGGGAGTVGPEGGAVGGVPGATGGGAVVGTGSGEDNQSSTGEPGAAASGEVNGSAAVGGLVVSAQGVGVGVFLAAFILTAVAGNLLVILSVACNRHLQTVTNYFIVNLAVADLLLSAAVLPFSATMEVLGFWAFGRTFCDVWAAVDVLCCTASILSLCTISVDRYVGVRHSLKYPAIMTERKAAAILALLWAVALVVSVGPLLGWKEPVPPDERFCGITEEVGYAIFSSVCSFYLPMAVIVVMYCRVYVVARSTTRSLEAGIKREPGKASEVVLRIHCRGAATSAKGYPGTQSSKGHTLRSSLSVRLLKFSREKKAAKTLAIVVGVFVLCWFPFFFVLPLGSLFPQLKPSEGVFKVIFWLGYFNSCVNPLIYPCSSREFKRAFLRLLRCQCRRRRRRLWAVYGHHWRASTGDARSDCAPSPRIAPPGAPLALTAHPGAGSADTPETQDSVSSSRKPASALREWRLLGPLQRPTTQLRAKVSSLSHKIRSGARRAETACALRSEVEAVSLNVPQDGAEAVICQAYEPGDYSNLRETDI
T1 sequence (P43140 whole entry): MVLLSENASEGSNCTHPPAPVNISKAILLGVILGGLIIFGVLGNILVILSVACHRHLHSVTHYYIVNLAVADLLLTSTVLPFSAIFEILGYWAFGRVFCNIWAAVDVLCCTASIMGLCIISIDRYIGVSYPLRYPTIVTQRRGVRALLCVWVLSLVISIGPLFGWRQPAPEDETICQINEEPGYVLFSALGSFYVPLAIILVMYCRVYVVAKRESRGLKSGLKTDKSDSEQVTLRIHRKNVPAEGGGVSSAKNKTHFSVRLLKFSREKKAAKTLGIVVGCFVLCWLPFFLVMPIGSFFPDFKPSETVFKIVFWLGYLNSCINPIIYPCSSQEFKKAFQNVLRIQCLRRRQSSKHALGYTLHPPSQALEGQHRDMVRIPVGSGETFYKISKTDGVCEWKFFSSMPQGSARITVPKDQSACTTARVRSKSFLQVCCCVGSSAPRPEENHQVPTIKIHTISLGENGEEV
Assay type: tissue-based, Brain

SMILES | Ki
C[C@H](N)[C@H](O)c1ccc(O)c(O)c1 (stereo in doubt; form 2) [LEVONORDEFRIN] | 2315 µM
C[C@H](N)[C@H](O)c1ccc(O)c(O)c1 (stereo in doubt; 1) [LEVONORDEFRIN] | 7.3 µM
CN[C@@H](C)[C@H](O)c1ccc(O)c(O)c1 | 146 µM
CNC(C)C(O)c1ccc(O)c(O)c1 (stereo unspecified) [DIOXIFEDRINE] | 28 µM
C[C@H](N)[C@H](O)c1ccc(O)c(O)c1 (stereo in doubt; form 1) [LEVONORDEFRIN] | 3.6 µM
CN[C@H](C)[C@@H](O)c1ccc(O)c(O)c1 | 11 µM
